From patent US20240091185A1, “COMPOSITION FOR IMPROVING COGNITIVE FUNCTION, AGENT FOR IMPROVING COGNITIVE FUNCTION, AND FOOD FOR IMPROVING COGNITIVE FUNCTION” (AJINOMOTO CO., INC., priority 2021, published 2024) come the findings set out here.

What all share (type): in vivo, mouse
In experiment [1] the test system is learning and/or memory functions of C57Bl/6j mice (LPS-induced learning and/or memory disorder model). In words: Novel object recognition test in LPS-induced learning and/or memory disorder model (Experimental Example 1). The conditions noted are these: 3 g/kg body weight oral once a day for 13 days; LPS 250 μg/kg i.p. day 4 to 10; Tukey; Example 1 p<0.05. As to the method:
To the control LPS group was orally administered 10 mL of distilled water per kg of mouse body weight once a day for 13 consecutive days.
The agent of Comparative Example 2 was suspended in distilled water at a concentration of 0.3 g/mL, and 10 mL (3 g/kg body weight) was orally administered per kg of mouse body weight once a day for 13 consecutive days to the group to be administered with the agent of Comparative Example 2 (LPS+Gly3). […]
During the training trial, the ratio (%) of the time of contact with object A1 or A2 with a shorter contact time to the total time of contact with the two objects (A1 and A2) placed in the experimental arena was calculated.
During the retention trial, the ratio (%) of the time of contact with object B to the total time of contact with the two objects (A1 and B, or A2 and B) placed in the experimental arena was determined. […]

In experiment [2] the test system is D-site of albumin promoter (albumin D-box) binding protein (Dbp) gene. Briefly: Hippocampal gene expression level by RNA-seq (TPM), Dbp. The conditions noted are these: oral once a day for 13 days (Example 1 3 g/kg, Comp. Ex. 4 2 g/kg, Comp. Ex. 5 1 g/kg); Dunnett; p<0.05 for Example 1. As to the method:
(§1) At that time, as comparison samples, 2 g of glycine was used as the agent of Comparative Example 4, and 1 g of L-serine was used as the agent of Comparative Example 5, and the action on gene expression in the mouse hippocampus was similarly examined.
(§2) The agent of Comparative Example 4 was suspended in 0.5 wt % methylcellulose aqueous solution at a concentration of 0.2 g/mL, and 10 mL (2 g/kg body weight) was orally administered per kg of mouse body weight once a day for 13 consecutive days to the group to be administered with the agent of Comparative Example 4 (LPS+Gly2).
(§3) The agent of Comparative Example 5 was suspended in 0.5 wt % methylcellulose aqueous solution at a concentration of 0.1 g/mL, and 10 mL (1 g/kg body weight) was orally administered per kg of mouse body weight once a day for 13 consecutive days to the group to be administered with the agent of Comparative Example 5 (LPS+L-Ser1).
(§4) Hippocampal tissue was collected from each group of mice that had been administered with each suspension or vehicle shown in Table 5 for 13 consecutive days, total RNA was extracted from each individual separately, and RNA sequencing (RNA-seq) was performed. […] Samples from individuals suspected of being contaminated at the time of tissue collection were excluded from analysis.

In experiment [3] the test system is Family with sequence similarity 107 member a (Fam107a) gene. Briefly: Hippocampal gene expression level by RNA-seq (TPM), Fam107a. The conditions noted are these: oral once a day for 13 days (Example 1 3 g/kg, Comp. Ex. 4 2 g/kg, Comp. Ex. 5 1 g/kg); Dunnett; p<0.05 for Example 1. The method, then: as §1, §2, §3, §4
The subject of experiment [4] is Sonic hedgehog (Shh) gene. Briefly: Hippocampal gene expression level by RNA-seq (TPM), Shh. The conditions noted are these: oral once a day for 13 days (Example 1 3 g/kg, Comp. Ex. 4 2 g/kg, Comp. Ex. 5 1 g/kg); Dunnett; p<0.05 for Example 1. As to the method:
as §1, §2, §3, §4

Experiment [5] deals with Galanin and GMAP prepropeptide (Gal) gene. In words: Hippocampal gene expression level by RNA-seq (TPM), Gal. The conditions noted are these: oral once a day for 13 days (Example 1 3 g/kg, Comp. Ex. 4 2 g/kg, Comp. Ex. 5 1 g/kg); Dunnett; p<0.05 for Example 1. The method, then: as §1, §2, §3, §4
The test system of experiment [6] is Thyroid stimulating hormone receptor (TShr) gene. Briefly: Hippocampal gene expression level by RNA-seq (TPM), Tshr. The settings on record: oral once a day for 13 days (Example 1 3 g/kg, Comp. Ex. 4 2 g/kg, Comp. Ex. 5 1 g/kg); Dunnett; p<0.05 for Example 1. The method, then: as §1, §2, §3, §4

Turning to `NCC(=O)O` [Comparative Example 2, glycine], the “RI value (%) during the retention trial, compared with the group orally administered with distilled water (LPS)” value in experiment [1] is “significant difference was not observed”.
Take `NCC(=O)O` [Comparative Example 4, glycine]: the “expression of the Dbp gene in hippocampus vs solvent alone (LPS)” value in experiment [2] is reported as “significant changes in the expression levels of genes were not observed”. Also, in experiment [3], the “expression of the Fam107a gene in hippocampus vs solvent alone (LPS)” value is “significant changes in the expression levels of genes were not observed”. In experiment [4], the “expression of the Shh gene in hippocampus vs solvent alone (LPS)” value is “significant changes in the expression levels of genes were not observed”. The “expression of the Gal gene in hippocampus vs solvent alone (LPS)” value in experiment [5] was “significant changes in the expression levels of genes were not observed”. Also, in experiment [6], the “expression of the Tshr gene in hippocampus vs solvent alone (LPS)” value is “significant changes in the expression levels of genes were not observed”.
For the molecule `N[C@@H](CO)C(=O)O` [Comparative Example 5, L-serine], in experiment [2], the “expression of the Dbp gene in hippocampus vs solvent alone (LPS)” value is reported as “significant changes in the expression levels of genes were not observed”. The “expression of the Fam107a gene in hippocampus vs solvent alone (LPS)” value in experiment [3] was “significant changes in the expression levels of genes were not observed”. Besides, in experiment [4], the “expression of the Shh gene in hippocampus vs solvent alone (LPS)” value was “significant changes in the expression levels of genes were not observed”. Further, the “expression of the Gal gene in hippocampus vs solvent alone (LPS)” value in experiment [5] was “significant changes in the expression levels of genes were not observed”. Also, the “expression of the Tshr gene in hippocampus vs solvent alone (LPS)” value in experiment [6] is given as “significant changes in the expression levels of genes were not observed”.
